Test results as given in patent publication US20050255458A1, “Drug discovery assays based on the biology of chronic disease” (priority 2002, published 2005).
Read-outs that look alike come from different tables or passages of the source.

How the values were obtained:
U937 = details: vs controls, p<0.05; cited from earlier work
HIV-1 [1] = assay: HIV-1 DNA load change over 80 weeks (Bruisten); type: in vivo, human; details: monotherapy; ddC calculated as ddC+AZT minus AZT
HIV-1 [2] = test system: HIV-1; parameters: key to Effect on HIV DNA: ↓↓: Two arrows indicates larger change; details: cited from earlier work
HIV-1 [3] = assay: HIV-1 DNA regression on years since seroconversion (Chun 1997); details: therapy including the drug; HIV-1 DNA per 10^6 resting CD4+ T-cells
HIV-1 [4] = assay: Total HIV-1 LTR DNA by PCR (Pauza 1994); details: scale of 1 to 5 (1 is lowest)
[5] = in vivo; cited from earlier work
leukocytes [6] = details: low concentrations, 20 hours; cited from earlier work
human lymphocytes = details: 0.1 and 1 mM; cited from earlier work
c-Rel/p65 = details: cited from earlier work
TF [7] = details: cited from earlier work
LDLR(−/−) mice = details: ≈5 mg/kg/day, 18 weeks; cited from earlier work
TF [8] = details: 0.5 mg/kg/day, cited from earlier work
leukocytes [9] = details: 5-20 mg/kg/day, oral; cited from earlier work
TF [10] = details: cited from earlier work; remark: listed apart in the source
[11] = combination treatment including the drug; cited from earlier work
CD18 = details: 10^−8 M for 10 min, vs unstimulated cells; cited from earlier work
Lp(a) = details: 2 g administered daily; cited from earlier work
NF-κB [12] = details: rabbit, in vivo; cited from earlier work
apoE(−/−) mice [13] = details: ramipril 1 mg/kg/day, 10 weeks; cited from earlier work
ACE [14] = target: T1, ACE (Homo sapiens, UniProt P12821); parameters: randomly assigned 9,297 high-risk patients; from tissue; host or cells: patients, in vivo; details: cited from earlier work
ACE [15] = target: T1, ACE; parameters: from tissue; host or cells: patients, in vivo; details: 5 or 10 mg/day, 4 years, vs placebo; cited from earlier work
ACE [16] = target: T1, ACE; parameters: randomly assigned 9,297 high-risk patients; from tissue; host or cells: patients, in vivo; details: cited from earlier work; remark: listed apart in the source
TF mRNA = details: obese mice, 10 to 20 weeks of age; cited from earlier work
rabbits = details: atherogenic diet; cited from earlier work
rhesus monkeys = details: atherogenic diet; cited from earlier work
U251.3 glioma cells = details: soluble, 100 μg/ml; fibronectin 10 μg/ml; 24 and 48 hours; cited from earlier work
NF-κB [17] = details: cited from earlier work
neutrophils = details: cited from earlier work
apoE(−/−) mice [18] = details: 500 or 1,000 ng/min/kg, 1 month; cited from earlier work
TF [19] = details: in vitro treatment; cited from earlier work
[20] = test system: apolipoprotein E deficient mice; details: 0.1 ml of 10^−7M per mouse, intraperitoneally, once a day for 30 days; cited from earlier work

T1 sequence (P12821 30-1306): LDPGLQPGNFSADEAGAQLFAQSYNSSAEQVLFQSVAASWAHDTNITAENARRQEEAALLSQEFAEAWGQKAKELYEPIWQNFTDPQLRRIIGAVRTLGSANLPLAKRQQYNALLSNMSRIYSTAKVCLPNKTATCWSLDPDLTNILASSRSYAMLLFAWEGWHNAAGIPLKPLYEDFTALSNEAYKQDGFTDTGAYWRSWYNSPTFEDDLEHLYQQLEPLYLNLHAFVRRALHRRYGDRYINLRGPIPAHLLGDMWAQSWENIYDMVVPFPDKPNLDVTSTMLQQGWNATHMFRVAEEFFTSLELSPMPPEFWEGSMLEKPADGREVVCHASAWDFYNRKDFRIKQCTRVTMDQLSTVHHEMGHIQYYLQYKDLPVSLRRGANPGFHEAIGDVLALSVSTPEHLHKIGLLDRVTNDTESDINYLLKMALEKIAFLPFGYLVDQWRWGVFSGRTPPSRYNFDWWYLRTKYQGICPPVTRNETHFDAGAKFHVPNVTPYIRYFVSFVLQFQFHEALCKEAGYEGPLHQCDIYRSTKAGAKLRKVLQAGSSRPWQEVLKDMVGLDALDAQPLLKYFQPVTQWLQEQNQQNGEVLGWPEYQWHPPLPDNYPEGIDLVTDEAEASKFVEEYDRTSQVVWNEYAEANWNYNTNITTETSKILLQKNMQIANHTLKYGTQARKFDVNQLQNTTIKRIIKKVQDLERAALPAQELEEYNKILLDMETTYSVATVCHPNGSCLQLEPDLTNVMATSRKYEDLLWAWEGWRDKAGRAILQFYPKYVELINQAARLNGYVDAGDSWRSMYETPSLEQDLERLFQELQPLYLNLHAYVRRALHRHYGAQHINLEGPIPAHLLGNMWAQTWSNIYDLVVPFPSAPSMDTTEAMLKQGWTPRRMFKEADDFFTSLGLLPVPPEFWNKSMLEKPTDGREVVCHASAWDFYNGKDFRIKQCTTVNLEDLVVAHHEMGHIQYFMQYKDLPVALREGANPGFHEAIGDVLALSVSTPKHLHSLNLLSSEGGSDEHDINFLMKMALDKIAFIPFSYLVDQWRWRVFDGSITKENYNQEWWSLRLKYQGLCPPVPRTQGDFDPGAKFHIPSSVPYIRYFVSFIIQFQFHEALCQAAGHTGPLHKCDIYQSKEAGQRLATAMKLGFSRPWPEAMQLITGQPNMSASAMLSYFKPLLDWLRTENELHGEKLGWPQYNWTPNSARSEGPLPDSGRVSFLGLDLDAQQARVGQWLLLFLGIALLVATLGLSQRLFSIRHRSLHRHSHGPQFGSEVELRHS

CC(C)CCC[C@@H](C)[C@H]1CC[C@H]2[C@@H]3C(=O)C=C4C[C@@H](O)CC[C@]4(C)[C@H]3CC[C@]12C [7-ketocholesterol]
GSH content (U937): lower GSH content

Cc1cn([C@H]2C[C@H](N=[N+]=[N-])[C@@H](CO)O2)c(=O)[nH]c1=O [AZT, Zidovudine]
mean log change from baseline in viral DNA over all time points (HIV-1 [1]): −0.05 | change in viral DNA (HIV-1 [2]; week 80): increase | average difference between expected and observed viral DNA copies (HIV-1 [3]): +317 copies | average ranking of viral DNA load (HIV-1 [4]): 2.74

CNCCC(Oc1ccc(C(F)(F)F)cc1)c1ccccc1 (stereo not drawn) [Fluoxetine]
effect on body weight [5]: ^IIFluoxetine produces a transient weight loss leading to gain in body weight in the long term.

CCCCNC(=O)NS(=O)(=O)c1ccc(C)cc1 [Tolbutamide]
atherosclerosis [5]: ^IIITolbutamide induced atherosclerosis.

CC(=O)Oc1ccccc1C(=O)O [aspirin, Acetylsalicylic Acid]
cell migration (leukocytes [6]): increased cell migration | migration of human lymphocytes (human lymphocytes): stimulated migration of human lymphocytes | LPS-induced translocation of c-Rel/p65 (c-Rel/p65): inhibited the LPS-induced translocation of c-Rel/p65 | TF staining area in plaque (TF [7]; non-smokers): 2.0±2% | TF staining area in plaque (TF [7]; smokers): 4.4±4% | decrease in NF-κB binding activity in the aortas (LDLR(−/−) mice): 34% | decrease in the positive area for macrophages (LDLR(−/−) mice): 57% | increase in the positive area for SMC (LDLR(−/−) mice): 77% | increase in TF concentration compared to non-smoker mice (Western blotting) (TF [8]): 1.3±0.17 fold | TF immunoreactive area (TF [8]; smoker mice, 8 weeks): 6.5±4.5% | increase of leukocyte migration relative to control values (leukocytes [9]): 20-70% | LPS-induced increase in TF mRNA and protein level (TF [10]): dose-dependently inhibited

Nc1ccn([C@H]2CC[C@@H](CO)O2)c(=O)n1 [ddC, zalcitabine]
mean log change from baseline in viral DNA over all time points (HIV-1 [1]): −0.1546 | association with fat redistribution (FR) [11]: significantly associated with the absence of FR | average ranking of viral DNA load (HIV-1 [4]): 2.71

OC[C@@H]1CC[C@H](n2cnc3c(O)ncnc32)O1 [ddI, 2′,3′-dideoxyinosine]
Effect on HIV DNA (HIV-1 [2]; in vivo): ↓↓ | average difference between expected and observed viral DNA copies (HIV-1 [3]): −828 copies | association with fat redistribution (FR) [11]: significantly associated with absence of FR | average ranking of viral DNA load (HIV-1 [4]): 2.25

CSCC[C@H](NC=O)C(=O)N[C@@H](CC(C)C)C(=O)N[C@@H](Cc1ccccc1)C(=O)O [fMLP, N-formylmethionyl-leucyl-phenylalanine]
increase in CD18 surface membrane concentration (CD18): 4 fold

O=C(O)c1cccnc1 [niacin]
decrease of Lp(a) (Lp(a)): 27%

CCOC(=O)[C@H](CCc1ccccc1)N[C@@H](C)C(=O)N1Cc2ccccc2C[C@H]1C(=O)O [quinapril]
NF-κB activity in atherosclerotic vessels (NF-κB [12]): decreased the NF-κB activity

CCOC(=O)[C@H](CCc1ccccc1)N[C@@H](C)C(=O)N1[C@H](C(=O)O)C[C@@H]2CCC[C@@H]21 [ramipril]
lesion area (apoE(−/−) mice [13]): 6,679±978 μm^2 | progression slope of the mean maximum carotid intimal medial thickness (IMT) (ACE [14]; 10 mg/day, 4.5 years): 0.0137±0.0024 mm/year | decrease of progression of carotid intima media thickness (ACE [14]; at 4.5 years): 0.008 mm per year | changes in thickness of the common carotid artery wall, or carotid plaque height (ACE [15]): no significant difference | rate of death from cardiovascular causes (ACE [16]; 10 mg/day, average follow up 4.5 years): 6.1% | rate of cardiac arrest (ACE [16]; 10 mg/day): 0.8% | rate of complications related to diabetes (ACE [16]; 10 mg/day): 6.4% | rate of death from any cause (ACE [16]; 10 mg/day): 10.4% | rate of heart failure (ACE [16]; 10 mg/day): 9.1% | rate of myocardial infarction (ACE [16]; 10 mg/day): 9.9% | rate of revascularization procedures (ACE [16]; 10 mg/day): 16.3% | rate of stroke (ACE [16]; 10 mg/day): 3.4% | RR of cardiac arrest (ACE [16]; vs placebo): 0.62 | RR of complications related to diabetes (ACE [16]; vs placebo): 0.84 | RR of death from any cause (ACE [16]; vs placebo): 0.84 | RR of death from cardiovascular causes (ACE [16]; vs placebo): 0.74 | RR of heart failure (ACE [16]; vs placebo): 0.77 | RR of myocardial infarction (ACE [16]; vs placebo): 0.80 | RR of revascularization procedures (ACE [16]; vs placebo): 0.85 | RR of stroke (ACE [16]; vs placebo): 0.68

CCOC(=O)[C@H](CCc1ccccc1)N[C@H]1CS[C@H](c2cccs2)CN(CC(=O)O)C1=O [temocapril]
TF mRNA in cardiac tissue (TF mRNA): attenuated the increase in TF mRNA

CN1CCN(CCCN2c3ccccc3Sc3ccc(C(F)(F)F)cc32)CC1 [trifluoperazine]
rate of lesion formation (rabbits): decreased the rate of lesion formation | rate of lesion formation (rhesus monkeys): decreased the rate of lesion formation

TNC: a large ECM glycoprotein secreted by a variety of cells
migration distance (U251.3 glioma cells): significantly increased migration distance

angiotensin II (DRVYIHPF; Angiotensin-2; UniProt P01019 25-32, looked up)
NF-κB activation (NF-κB [17]): increased NF-κB activation | velocity (neutrophils; concentration of 10^−11): 88 % of maximum velocity | concentration of peak velocity (neutrophils; neutrophils): 10^−10 | development of AAA (apoE(−/−) mice [18]): promotes the development of AAA | rate of atherosclerotic lesion formation in the thoracic aorta (apoE(−/−) mice [18]): increases the rate of atherosclerotic lesion formation | TF antigen and mRNA (TF [19]): dose-depended increase in TF antigen and mRNA | lesion area [20]: 5,000 μm^2
